Data: patent US11673889B2, “Substituted imidazo[4,5-c][1,8]naphthyridines as phosphodiesterase inhibitors” (Nanjing Zhengxiang Pharmaceuticals Co., Ltd., priority 2019, dated 2023)

What was measured:
ENPP-1, HEK293 cells = biological target: T1, ENPP-1, HEK293 cells (Homo sapiens, UniProt P22413); test: Cellular enzymatic assay of ENPP-1 inhibitors using TMP-pNP as substrate, HEK 293 cells; assay type: cell-based; conditions: for inhibition at 20 µM: HEK293, HEK 293 cells, read-out: Inhibition (at 20 μM)
T1 construct: ENPP-1 were mainly expressed on the surface of cell membrane; endogenous in cells; host or cells: HEK293
T1 sequence (P22413 1-925): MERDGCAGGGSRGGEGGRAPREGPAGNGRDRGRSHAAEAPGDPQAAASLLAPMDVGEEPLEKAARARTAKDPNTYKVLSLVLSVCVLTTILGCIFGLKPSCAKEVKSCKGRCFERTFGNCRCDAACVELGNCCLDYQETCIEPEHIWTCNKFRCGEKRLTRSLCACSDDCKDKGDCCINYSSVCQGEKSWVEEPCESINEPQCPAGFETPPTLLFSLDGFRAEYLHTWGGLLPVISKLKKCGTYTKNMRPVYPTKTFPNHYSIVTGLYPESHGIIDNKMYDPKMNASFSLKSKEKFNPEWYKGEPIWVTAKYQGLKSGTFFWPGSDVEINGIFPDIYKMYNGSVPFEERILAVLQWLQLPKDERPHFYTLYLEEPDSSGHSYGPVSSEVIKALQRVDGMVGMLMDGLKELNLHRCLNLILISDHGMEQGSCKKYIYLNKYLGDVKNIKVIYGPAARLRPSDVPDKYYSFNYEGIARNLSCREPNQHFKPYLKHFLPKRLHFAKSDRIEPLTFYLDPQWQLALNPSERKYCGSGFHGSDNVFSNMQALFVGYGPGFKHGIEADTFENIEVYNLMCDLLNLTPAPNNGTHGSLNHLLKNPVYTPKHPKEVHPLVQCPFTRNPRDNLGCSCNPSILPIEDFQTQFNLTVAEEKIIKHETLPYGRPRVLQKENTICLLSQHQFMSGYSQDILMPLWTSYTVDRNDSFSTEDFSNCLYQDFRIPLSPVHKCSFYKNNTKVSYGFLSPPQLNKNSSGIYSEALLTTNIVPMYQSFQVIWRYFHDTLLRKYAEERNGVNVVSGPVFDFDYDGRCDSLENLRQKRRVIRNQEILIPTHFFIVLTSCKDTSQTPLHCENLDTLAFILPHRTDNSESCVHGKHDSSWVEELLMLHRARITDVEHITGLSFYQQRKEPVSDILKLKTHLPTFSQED
Method: (§1) ENPP-1 were mainly expressed on the surface of cell membrane where it hydrolytes 2′3′-cGAMP to generate 5′-GMP and 5′-AMP. ENPP-1 also has the ability to hydrolyzes artificial phosphoric acid ester TMP-pNP to nucleotide-5′-monophosphate and p-nitrophcnol there, which is a chromogenic product.
(§2) 8 point of different concentrations of each inhibitor were prepared with the final assay concentrations starting at 20 μM. 3× series dilution by DMEM medium without FBS was applied. Prior to adding inhibitors, 75000 cells per well were incubated at 37° C., 5% CO2 in DMEM for 24 hours. After removing the supernatant medium, 50 μL inhibitor solution was added into each well with cultured cells and incubate at 37° C., 5% CO2 for 60 minutes.
(§3) The IC50 values for percent inhibition versus compound concentration are determined by fitting the inhibition curves using a four-parameter variable slope model in GraphPad Prism® 8.

[1] = Liver microsome stability, mouse; assay type: in vitro ADME
Method: (§4) Liver microsome assay was used to evaluate the metabolic stability of I-VI. The test article at the concentration of […] was incubated with 0.5 mg/mL liver microsome in the presence of NADPH and UDPGA as the co-factors for 0, 15, 30, 45 and 60 minutes. The incubation was carried out at 37° C. with 5% CO2 and saturating humidity. Disappearance of the test article was monitored by LC/MS/MS. the disappearance half-life (t1/2), intrinsic clearance and hepatic extraction ratio were determined.

[2] = Liver microsome stability, human; assay type: in vitro ADME
Method: as §4

ENPP-1, Saos-2 cells = biological target: T2, ENPP-1, Saos-2 cells (Homo sapiens, UniProt P22413); test: Cellular enzymatic assay of ENPP-1 inhibitors using TMP-pNP as substrate, Saos-2 cells; assay type: cell-based
T2 construct: ENPP-1 were mainly expressed on the surface of cell membrane; endogenous in cells; host or cells: Saos-2
T2 sequence (P22413 1-925): T1 sequence (P22413 1-925)
Method: as §1, §2, §3

Compound	IC50 (ENPP-1, HEK293 cells) [µM]	inhibition at 20 µM (ENPP-1, HEK293 cells) [%]	Hepatic extraction ratio Re ([1]; Mouse liver microsome)	half-life ([1]; liver microsomes, Mouse liver microsome 0.5 mg/mL, NADPH and UDPGA, 37° C., read-out: Half-life t1/2) [h]	microsomal CLint ([1]; liver microsomes, Mouse liver microsome, read-out: Intrinsic clearance Cl′int, (μL/min/mg protein)) [µL/min/mg]	Hepatic extraction ratio Re ([2]; Human liver microsome)	half-life ([2]; liver microsomes, Human liver microsome 0.5 mg/mL, NADPH and UDPGA, 37° C., read-out: Half-life t1/2) [h]	microsomal CLint ([2]; liver microsomes, Human liver microsome, read-out: Intrinsic clearance Cl′int, (μL/min/mg protein)) [µL/min/mg]	IC50 (ENPP-1, Saos-2 cells) [µM]	inhibition at 20 µM (ENPP-1, Saos-2 cells; Saos-2 cells, @20 μM, read-out: % Inhibition (@20 μM)) [%]
COc1cc2ncc3ncn(Cc4ccc(S(N)(=O)=O)cn4)c3c2cc1OC [Compound 12, 6-((7,8-dimethoxy-1H-imidazo[4,5-c]quinolin-1-yl)methyl)pyridine-3-sulfonamide]	2.3	85	0.20	3.95	5.9	0.14	8.27	2.8	1	87
COc1ccc2c(ncc3nc(C)n(Cc4ccc(S(N)(=O)=O)cc4)c32)n1 [Compound 48, 4-((7-methoxy-2-methyl-1H-imidazo[4,5-c][1,8]naphthyridin-1-yl)methyl)benzenesulfonamide]	0.67	95	–	–	–	–	–	–	–	–
